Source: PubChem BioAssay (NCI)
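A five-concentration, 48-hour dose response in 96-well plates underlies each endpoint, interpolated linearly between surrounding concentrations. At the GI50, growth is halved. The concentration for full growth arrest is given as TGI.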

How the values were obtained:
Test in all cases: NCI-60 cell line screen, 48 h
[1] = system: CCRF-CEM leukemia
[2] = system: HOP-92 NSCLC
[3] = system: LOX IMVI melanoma
[4] = system: NCI-H23 lung
[5] = system: NCI-H522 lung
[6] = system: OVCAR-5 ovarian
[7] = system: U251 CNS
[8] = system: UO-31 renal
[9] = system: UACC-62 melanoma
[10] = system: NCI/ADR-RES ovarian

Row | SMILES | TGI [1] [µM] | TGI [2] [µM] | TGI [3] [µM] | TGI [4] [µM] | TGI [5] [µM] | TGI [6] [µM] | TGI [7] [µM] | TGI [8] [µM] | TGI [9] [µM] | GI50 [3] [µM] | GI50 [4] [µM] | GI50 [10] [µM] | TGI [10] [µM] | GI50 [6] [µM] | GI50 [7] [µM] | GI50 [9] [µM] | GI50 [8] [µM] | GI50 [1] [µM] | GI50 [5] [µM]
1 | CCc1cccc(CC)c1NC(=O)C1=C(C)NC(C)=C(C(=O)Nc2c(CC)cccc2CC)C1c1ccc([N+](=O)[O-])cc1 | 45.8 | 39.6 | > 100 | > 100 | 40.2 | > 100 | > 100 | > 100 | – | – | – | – | – | – | – | – | – | – | –
2 | COc1cc(CNC2c3cc4c(cc3C(c3cc(OC)c(OC)c(OC)c3)[C@H]3C(=O)OCC23)OCO4)cc(OC)c1OC (some centres undefined) | 40.9 | > 100 | > 100 | 0.77 | 0.262 | > 100 | – | > 100 | 0.651 | – | – | – | – | – | – | – | – | – | –
3 | O=C(Nc1cccc(O)c1)C(=O)C(C(=O)c1ccc(Cl)c(Cl)c1)C1OC(=O)c2ccccc21 (centres undefined) | 55.5 | 53.8 | 33.8 | 32.6 | 21.8 | 65.2 | 21.3 | 27.1 | 31.8 | – | – | – | – | – | – | – | – | – | –
4 | O=[N+]([O-])C1Cc2ccccc2OC1c1ccccc1 (centres undefined) | > 100 | > 100 | 31.9 | > 100 | > 100 | > 100 | > 100 | > 100 | > 100 | – | – | – | – | – | – | – | – | – | –
5 | O=C1OC(O)C(Oc2c(Cl)cccc2Cl)=C1Cl (centres undefined) | 53 | 41.9 | 34 | 38.9 | 27.3 | 46 | 26.8 | 28.2 | 24.7 | – | – | – | – | – | – | – | – | – | –
6 | CCC(CNc1cc(OC)cc2cccnc12)NC1CCCCC1 (centres undefined) | – | – | > 100 | > 100 | – | > 100 | > 100 | > 100 | > 100 | 28.6 | 51.3 | 35.3 | > 100 | 61 | 43.3 | 40.1 | 4.47 | – | –
7 | CN(C)c1nc(=Nc2cccc(Cl)c2)ss1 | 22.1 | 49.4 | 27.8 | > 100 | 15 | 74.6 | 24.1 | 69.8 | 23.4 | – | – | – | – | – | – | – | – | – | –
8 | O=C1CCCCCCCCCCC1CN1CCCCC1 (centres undefined) | > 100 | – | > 100 | > 100 | > 100 | > 100 | > 100 | > 100 | > 100 | – | – | – | – | – | – | – | – | – | –
9 | CCOC(=N)CC(=O)c1ccccc1 | > 100 | > 100 | > 100 | > 100 | > 100 | > 100 | > 100 | > 100 | > 100 | – | – | – | – | – | – | – | – | – | –
10 | Cn1c(=O)c2nc(-c3ccc(Cl)cc3)oc2n(C)c1=O | > 100 | > 100 | > 100 | > 100 | > 100 | > 100 | > 100 | > 100 | > 100 | – | – | – | – | – | – | – | – | – | –
11 | CCOC(=N)/C(=C1\OC(N)=C(c2ccc(Cl)cc2)C1=O)c1ccc(Cl)cc1 | 65.6 | 34 | 28.1 | 28.6 | 29.4 | 35 | 30.8 | 31.3 | 29 | – | – | – | – | – | – | – | – | – | –
12 | Cc1c(C(=O)/C=C/c2ccccc2O)c(=O)n(-c2ccccc2)n1C | 86.9 | 64.6 | 45.9 | – | 47.5 | > 100 | 35.9 | – | > 100 | – | – | – | – | – | – | – | – | – | –
13 | CC(=O)On1c(-c2ccccc2-c2nc3ccccc3n2OC(C)=O)nc2ccccc21 | > 100 | – | > 100 | 76.6 | 51.5 | > 100 | > 100 | > 100 | > 100 | – | – | – | > 100 | – | – | – | – | – | –
14 | CCCN(CCCC(NC(C)=O)C(=O)NCc1ccccc1)C(=O)NCCCl (centres undefined) | > 100 | > 100 | – | > 100 | > 100 | – | > 100 | > 100 | > 100 | – | – | – | – | – | – | – | – | – | –
15 | COC(=O)C(Cc1nc2ccccc2[nH]c1=O)C(=O)C(=O)Nc1ccc([N+](=O)[O-])cc1[N+](=O)[O-] (centres undefined) | 51.9 | – | 44.4 | 35.9 | 20.8 | 51 | 32.5 | 43.6 | 38.9 | – | – | – | – | – | – | – | – | – | –
16 | CC(C)(C)C1CCC2c3c([nH]c4ccccc34)C3C(=O)N(c4ccccc4)C(=O)C3C2C1 (centres undefined) | 11 | – | 15.3 | 40.1 | – | > 100 | 11 | 8.48 | 56.7 | – | – | – | – | – | – | – | – | – | –
17 | O=S1Nc2c(Cl)cc(Cl)c3c(Cl)cc(Cl)c(c23)N1 | > 100 | 51 | > 100 | > 100 | 89.8 | > 100 | 69.6 | > 100 | 66 | – | – | – | – | – | – | – | – | – | –
18 | CC[N+]1(C)CCC(O)(c2ccc(OC)cc2)C(C(=O)c2ccc(OC)cc2)C1 (centres undefined) | 4.94 | 6.79 | 34.3 | 36.8 | 3.89 | 35.3 | 33 | 33.6 | 38.4 | – | – | – | – | – | – | – | – | – | –
19 | CCc1cc(CCC(=O)Nc2c(C)cccc2C)[nH]n1 | > 100 | > 100 | – | > 100 | > 100 | > 100 | > 100 | > 100 | > 100 | – | – | – | – | – | – | – | – | – | –
20 | Cc1cc(Cl)ccc1NC(=O)C(=O)C(C(=O)c1ccc2ccccc2c1)C1OC(=O)c2ccccc21 (centres undefined) | 22.2 | 34.5 | 32.2 | 26.3 | 23.4 | 48.4 | 21.2 | 31.5 | 24 | – | – | – | – | – | – | – | – | – | –
21 | O=C(OCc1ncc(-c2ccc(C(F)(F)F)cc2)c(NC2CCCCCC2)n1)c1c(F)c(F)c(F)c(F)c1F | 7.02 | – | – | 28 | 14.6 | 36.5 | – | 21.3 | 29.2 | – | 10.6 | 21.2 | 55.5 | 20 | – | 14.2 | 8.12 | 1.83 | 3.9
22 | CN1C(=O)C(=O)c2cc3c(c4c2c1cc1ccccc14)OCO3 | > 100 | > 100 | 97.2 | > 100 | > 100 | > 100 | > 100 | > 100 | 38.5 | – | – | – | – | – | – | – | – | – | –
23 | CSc1n[n+]2c(s1)SCCC2 | > 100 | > 100 | > 100 | > 100 | > 100 | > 100 | > 100 | > 100 | > 100 | – | – | – | – | – | – | – | – | – | –
24 | O=C1C(Cl)C(c2ccccc2O)N1n1cnc2ccccc2c1=O (centres undefined) | > 100 | – | > 100 | > 100 | 93.8 | > 100 | > 100 | > 100 | > 100 | – | – | – | – | – | – | – | – | – | –
